Assay results reported in ChEMBL document CHEMBL5352410, “Discovery of novel selenium-containing azole derivatives as antifungal agents by exploiting the hydrophobic cleft of CYP51” (Eur J Med Chem, 2022).
In brackets after ≈: the same amount, converted by molar mass.

Key:
Candida albicans [1] = assay: Antifungal activity against Candida albicans sc5314 by CLSI based broth microdilution method; format: functional
Candida albicans [2] = assay: Fungicidal activity against Candida albicans sc5314; format: functional
Candida albicans [3] = assay: Antifungal activity against Candida albicans by CLSI based broth microdilution method; format: functional
Cryptococcus neoformans = assay: Antifungal activity against Cryptococcus neoformans by CLSI based broth microdilution method; format: functional
Candida albicans [4] = assay: Antifungal activity against FCZ-resistant Candida albicans 904 by CLSI based broth microdilution method; format: functional
Candida albicans [5] = assay: Antifungal activity against FCZ-resistant Candida albicans 17# by CLSI based broth microdilution method; format: functional
Candida albicans [6] = assay: Antifungal activity against FCZ-resistant Candida albicans CaR by CLSI based broth microdilution method; format: functional
Candida albicans [7] = assay: Fungicidal activity against FCZ-resistant Candida albicans 632; format: functional
Candida albicans [8] = assay: Fungicidal activity against FCZ-resistant Candida albicans 901; format: functional
Candida parapsilosis = assay: Antifungal activity against Candida parapsilosis by CLSI based broth microdilution method; format: functional; conditions: Lodderomyces parapsilosis
Nakaseomyces glabratus = assay: Antifungal activity against Candida glabrata by CLSI based broth microdilution method; format: functional
Candida albicans [9] = assay: Fungicidal activity against FCZ-resistant Candida albicans CaR; format: functional
Candida albicans [10] = assay: Antifungal activity against FCZ-resistant Candida albicans 901 by CLSI based broth microdilution method; format: functional
Candida albicans [11] = assay: Fungicidal activity against Candida albicans; format: functional
Candida albicans [12] = assay: Fungicidal activity against FCZ-resistant Candida albicans 904; format: functional
Candida albicans [13] = assay: Fungicidal activity against FCZ-resistant Candida albicans 17#; format: functional
[Candida] zeylanoides = Antifungal activity against Candida zeylanoides by CLSI based broth microdilution method; format: functional; conditions: Dujonia zeylanoides
Candida albicans [14] = assay: Antifungal activity against FCZ-resistant Candida albicans 632 by CLSI based broth microdilution method; format: functional
Pichia kudriavzevii = assay: Antifungal activity against Pichia kudriavzevii by CLSI based broth microdilution method; format: functional
Aspergillus fumigatus = assay: Antifungal activity against Aspergillus fumigatus by CLSI based broth microdilution method; format: functional
[15] = Cytotoxicity against human PC-3 cells by MTT assay; format: toxicity, cell-based
[16] = Cytotoxicity against human HL-60 cells by MTT assay; format: toxicity, cell-based

Compound	MIC (Candida albicans [1]) [µg/mL]	MFC (Candida albicans [2]) [µg/mL]	MIC (Candida albicans [3]) [µg/mL]	MIC (Cryptococcus neoformans) [µg/mL]	MIC (Candida albicans [4]) [µg/mL]	MIC (Candida albicans [5]) [µg/mL]	MIC (Candida albicans [6]) [µg/mL]	MFC (Candida albicans [7]) [µg/mL]	MFC (Candida albicans [8]) [µg/mL]	MIC (Candida parapsilosis) [µg/mL]	MIC (Nakaseomyces glabratus) [µg/mL]	MFC (Candida albicans [9]) [µg/mL]	MIC (Candida albicans [10]) [µg/mL]	MFC (Candida albicans [11]) [µg/mL]	MFC (Candida albicans [12]) [µg/mL]	MFC (Candida albicans [13]) [µg/mL]	MIC ([Candida] zeylanoides) [µg/mL]	MIC (Candida albicans [14]) [µg/mL]	MIC (Pichia kudriavzevii) [µg/mL]	MIC (Aspergillus fumigatus) [µg/mL]	also measured
Clc1ccc(C(Cn2ccnc2)[Se]C(Cn2ccnc2)c2ccc(Cl)cc2Cl)c(Cl)c1 (stereo unspecified)	2 (≈ 3.58 µM)	64 (≈ 114 µM)	16 (≈ 28.6 µM)	64 (≈ 114 µM)	16 (≈ 28.6 µM)	2 (≈ 3.58 µM)	2 (≈ 3.58 µM)	> 64	> 64	64 (≈ 114 µM)	64 (≈ 114 µM)	> 64	64 (≈ 114 µM)	> 64	32 (≈ 57.2 µM)	> 64	8 (≈ 14.3 µM)	16 (≈ 28.6 µM)	128 (≈ 229 µM)	> 64	–
c1ccc(C(Cn2ccnc2)[Se][Se]C(Cn2ccnc2)c2ccccc2)cc1 (stereo unspecified)	–	16 (≈ 32 µM)	–	–	8 (≈ 16 µM)	> 64	2 (≈ 4 µM)	16 (≈ 32 µM)	8 (≈ 16 µM)	–	–	> 64	4 (≈ 7.99 µM)	64 (≈ 128 µM)	8 (≈ 16 µM)	> 64	–	8 (≈ 16 µM)	–	–	–
Fc1ccc(C(Cn2cncn2)[Se]C(Cn2cncn2)c2ccc(F)cc2)cc1 (stereo unspecified)	32 (≈ 69.7 µM)	–	> 64	> 64	64 (≈ 139 µM)	8 (≈ 17.4 µM)	64 (≈ 139 µM)	–	–	> 64	64 (≈ 139 µM)	–	> 64	–	–	–	1 (≈ 2.18 µM)	> 64	> 64	> 64	–
Fc1ccc(C(Cn2ccnc2)[Se]C(Cn2ccnc2)c2ccc(F)cc2)cc1 (stereo unspecified)	2 (≈ 4.37 µM)	16 (≈ 35 µM)	4 (≈ 8.75 µM)	64 (≈ 140 µM)	32 (≈ 70 µM)	4 (≈ 8.75 µM)	2 (≈ 4.37 µM)	16 (≈ 35 µM)	64 (≈ 140 µM)	16 (≈ 35 µM)	64 (≈ 140 µM)	> 64	16 (≈ 35 µM)	64 (≈ 140 µM)	> 64	> 64	4 (≈ 8.75 µM)	4 (≈ 8.75 µM)	32 (≈ 70 µM)	> 64	–
Fc1ccc(C(Cn2ccnc2)[Se][Se]C(Cn2ccnc2)c2ccc(F)cc2F)c(F)c1 (stereo unspecified)	–	16 (≈ 28 µM)	–	–	8 (≈ 14 µM)	8 (≈ 14 µM)	4 (≈ 6.99 µM)	16 (≈ 28 µM)	8 (≈ 14 µM)	–	–	> 64	4 (≈ 6.99 µM)	32 (≈ 55.9 µM)	8 (≈ 14 µM)	> 64	–	8 (≈ 14 µM)	–	–	–
Fc1ccc(C(Cn2ccnc2)[Se][Se]C(Cn2ccnc2)c2ccc(F)cc2)cc1 (stereo unspecified)	–	> 64	–	–	64 (≈ 119 µM)	32 (≈ 59.7 µM)	4 (≈ 7.46 µM)	> 64	32 (≈ 59.7 µM)	–	–	> 64	16 (≈ 29.8 µM)	> 64	64 (≈ 119 µM)	> 64	–	64 (≈ 119 µM)	–	–	–
Fc1ccc(C(Cn2cnnn2)[Se]C(Cn2cnnn2)c2ccc(F)cc2)cc1 (stereo unspecified)	> 64	–	> 64	> 64	> 64	> 64	> 64	–	–	> 64	> 64	–	> 64	–	–	–	32 (≈ 69.4 µM)	> 64	> 64	> 64	–
Fc1ccc(C(Cn2cnnn2)[Se]C(Cn2cnnn2)c2ccc(F)cc2F)c(F)c1 (stereo unspecified)	> 64	–	> 64	> 64	> 64	> 64	> 64	–	–	> 64	> 64	–	> 64	–	–	–	> 64	> 64	> 64	> 64	–
Clc1ccc(C(Cn2cncn2)[Se]C(Cn2cncn2)c2ccc(Cl)cc2Cl)c(Cl)c1 (stereo unspecified)	32 (≈ 57 µM)	–	64 (≈ 114 µM)	4 (≈ 7.13 µM)	> 64	8 (≈ 14.3 µM)	32 (≈ 57 µM)	–	–	64 (≈ 114 µM)	32 (≈ 57 µM)	–	> 64	–	–	–	0.5 (≈ 0.891 µM)	64 (≈ 114 µM)	64 (≈ 114 µM)	> 64	–
CC(=O)O[C@H]1C(=O)[C@@]2(C)[C@H]([C@H](OC(=O)c3ccccc3)[C@]3(O)C[C@H](OC(=O)[C@H](O)[C@@H](NC(=O)c4ccccc4)c4ccccc4)C(C)=C1C3(C)C)[C@]1(OC(C)=O)CO[C@@H]1C[C@@H]2O [PACLITAXEL]	–	–	–	–	–	–	–	–	–	–	–	–	–	–	–	–	–	–	–	–	IC50 [15]: < 25 nM
COc1cccc2c1C(=O)c1c(O)c3c(c(O)c1C2=O)C[C@@](O)(C(=O)CO)C[C@@H]3O[C@H]1C[C@H](N)[C@H](O)[C@H](C)O1 [DOXORUBICIN]	–	–	–	–	–	–	–	–	–	–	–	–	–	–	–	–	–	–	–	–	IC50 [16]: < 125 nM
Clc1ccc(C(Cn2cnnn2)[Se]C(Cn2cnnn2)c2ccc(Cl)cc2Cl)c(Cl)c1 (stereo unspecified)	> 64	–	> 64	> 64	> 64	> 64	> 64	–	–	> 64	> 64	–	> 64	–	–	–	> 64	> 64	> 64	> 64	–
c1ccc(C(Cn2ccnc2)[Se]C(Cn2ccnc2)c2ccccc2)cc1 (stereo unspecified)	4 (≈ 9.49 µM)	8 (≈ 19 µM)	8 (≈ 19 µM)	64 (≈ 152 µM)	4 (≈ 9.49 µM)	0.5 (≈ 1.19 µM)	4 (≈ 9.49 µM)	16 (≈ 38 µM)	16 (≈ 38 µM)	4 (≈ 9.49 µM)	16 (≈ 38 µM)	> 64	8 (≈ 19 µM)	64 (≈ 152 µM)	8 (≈ 19 µM)	> 64	4 (≈ 9.49 µM)	8 (≈ 19 µM)	16 (≈ 38 µM)	> 64	–
Clc1ccc(C(Cn2cncn2)[Se]C(Cn2cncn2)c2ccc(Cl)cc2)cc1 (stereo unspecified)	32 (≈ 65 µM)	–	> 64	4 (≈ 8.13 µM)	64 (≈ 130 µM)	8 (≈ 16.3 µM)	32 (≈ 65 µM)	–	–	> 64	> 64	–	16 (≈ 32.5 µM)	–	–	–	16 (≈ 32.5 µM)	> 64	> 64	> 64	–
